Results reported in patent US20120196748A1, “PESTICIDAL COMPOSITION” (SYNGENTA LIMITED, priority 2009, published 2012).

How the values were obtained:
[1] = Soil mobility of herbicides, uptake by concentric PDMS rings; format: physicochemical; details: 7 days after application, sandy loam soil, moisture content 26.3%
Description: The soil mobility of various herbicides were examined in sandy loam soil with a moisture content of 26.3%. Three concentric PDMS (polydimethyl siloxane) rings having diameters of 2, 4 and 6 cm, respectively were placed in the soil at three different depths at 0.5 cm apart. 1 ml of a herbicide solution is injected in the center of the rings. The uptake of the herbicide by the rings were analysed 7 days after herbicide application.

weeds = assay: Field weed control by clomazone-treated wheat seeds; format: in vivo; details: field at Möhlin, 64 days after planting
Description: Two different types of wheat seeds were used, i.e. Match and Steme. The treated wheat seeds were sown in the field (at Möhlin in Swtzerland). 64 days after planting the control of weeds was analysed.

[2] = uptake by PDMS ring of 2 cm diameter
[3] = uptake by PDMS ring of 4 cm diameter

SMILES	Percentage of totally applied herbicide (%) [1, 2]	Percentage of totally applied herbicide (%) [1, 3]	Percentage of totally applied herbicide (%) ([1]; uptake by PDMS ring of 6 cm diameter)	Weed control (%) (weeds; wheat seed type Match)	Weed control (%) (weeds; wheat seed type Steme)
CCCN(CCC)c1c([N+](=O)[O-])cc(C(F)(F)F)cc1[N+](=O)[O-] [Trifluralin]	0.62%	0.02%			
CCCN(CCC)C(=O)SCC [EPTC]	12.70%	5.56%	0.97%		
CCOCN(C(=O)CCl)c1c(C)cccc1CC [Acetochlor]	0.14%				
CC1(C)CON(Cc2ccccc2Cl)C1=O [Clomazone]	0.36%			95%	95%
CCc1cccc(C)c1N(C(=O)CCl)[C@@H](C)COC [S-metalochlor]	0.11%				
